Publication PMC4834746 (Anesthesiology and Pain Medicine, 2016)
“Also recorded” adds a separate entry of the source. Structures can show the parent of a compound that is named as a salt. Where two headings read alike, the source gives them in different places.

Columns and labels:
[1] = format: in vivo, rat
[2] = AM404 concentration in rat plasma after oral administration of acetaminophen; format: in vivo; conditions: oral 20 mg/kg acetaminophen, data not shown
[3] = format: in vivo, rat; conditions: for half-life: t1/2, rat plasma
[4] = male, Crl:CD(SD), rat, brain, po, 20 mg/kg
[5] = male, Crl:CD(SD), rat, plasma, po, 20 mg/kg
[6] = male, Crl:CD(SD), rat, plasma, po, 20 mg/kg, oral 20 mg/kg acetaminophen, mean
[7] = rat plasma, oral 20 mg/kg acetaminophen, mean, 20 mg/kg
[8] = rat plasma, oral 20 mg/kg acetaminophen, mean

AUC(0-t) [3, 5] | Cmax [3, 5] | k el [3, 5] | half-life [3, 6] | t1/2 [3, 7] | AUC0-2h [3, 8] | Cmax [3, 8] | Kel [3, 8] | tmax [3, 8] | SMILES | t1/2 [3, 8] | other results
7990 ng·h/mL | 9300 ng/mL | 0.000533 s⁻¹ | 25 min | 21.7 min |  |  |  |  | CC(=O)Nc1ccc(O[C@@H]2O[C@H](C(=O)O)[C@@H](O)[C@H](O)[C@H]2O)cc1 [Glu, acetaminophen glucuronide] |  | tmax [3, 5]: 15 min
 |  |  |  | 25 min | 22.2 µg·h/g | 21.7 µg/g | 1.67 h⁻¹ | 15 min | CC(=O)Nc1ccc(OS(=O)(=O)O)cc1 [Sul, acetaminophen sulfate] |  | 
 |  |  |  |  | 0.251 µg·h/g | 0.258 µg/g | 1.44 h⁻¹ | 30 min | CC(=O)Nc1ccc(O)c(SC[C@H](N)C(=O)O)c1 [Sys, Acetaminophen cysteine] | 29 min | 

The next lines start with the compound.

SMILES | AUC(0-t) [3, 5] | Cmax [3, 5] | k el [3, 5] | half-life [3, 6] | t1/2 [3, 7] | AUC0-2h [3, 8] | Cmax [3, 8] | Kel [3, 8] | tmax [3, 8] | t1/2 [3, 8] | other results
CCCCC/C=C\C/C=C\C/C=C\C/C=C\CCCC(=O)Nc1ccc(O)cc1 [AM404, N-(4-hydroxyphenyl) arachidonamide] |  |  |  |  |  |  |  |  |  |  | conversion rate of acetaminophen to AM404 ([1]; calculated using AUC0-2h, oral 20 mg/kg acetaminophen, rat): 0.0013%; half-life [1, 4]: 18.3 min; k el [1, 4]: 0.000631 s⁻¹; AUC0-2h ([1]; rat brain, oral 20 mg/kg acetaminophen, mean): 117 pg·h/g; concentration of AM404 in plasma [2]: undetectable; also recorded: unable to detect
CC(=O)Nc1ccc(O)cc1 [APAP, Acetaminophen, reference compound] | 8960 ng·h/mL | 15800 ng/mL | 0.000644 s⁻¹ | 17.9 min |  |  |  |  |  |  | 
CC(=O)Nc1ccc(O)c(SC[C@H](NC(C)=O)C(=O)O)c1 [Mer, acetaminophen mercapturate acid] |  |  |  |  |  | 0.167 µg·h/g | 0.154 µg/g | 0.890 h⁻¹ | 30 min | 46.7 min | 
